# Measurements from patent US20040152786A1, “Preventive or remedy for diseases caused by cerebrovascular disturbances” (priority 2003, published 2004).
# What was measured:
# [1] = test system: ischemic re-perfusion rat model; test: Infarct lesion area and volume, ischemic re-perfusion rat model; type: in vivo
# Procedure: An influence of the cyclohexenone long-chain fatty alcoholic compound, which had been prepared in Preparation Example 2, on each of the area and volume of the infarct lesion was studied using an ischemic re-perfusion rat model.
# The 8-week-old rats were occluded, at the middle brain artery thereof, with a nylon stopper for 2 hours, followed by intraperitoneal administration of the compound of Preparation Example 2 in amounts of 0.5 mg/kg, 2 mg/kg and 8 mg/kg, respectively, rightly before re-perfusion. After removal of the nylon stopper, re-perfusion was conducted. Twenty four hours after occlusion, the brain was enucleated and each of the area and volume of the infarct lesion was measured in a similar manner to Test 2.
# [2] = test system: middle-cerebral-artery permanently-occluded rat model; test: Infarct lesion area and volume, middle-cerebral-artery permanently-occluded rat model; type: in vivo
# Text: An influence of the cyclohexenone long-chain fatty alcoholic compound, which had been obtained in Preparation Example 2, on the area and volume of the infarct lesion caused by ischemia was studied using a middle-cerebral-artery permanently-occluded rat model.
# The middle cerebral artery of an 8-week-old rat was electrically coagulated and occluded by a bipolar coagulator (MICRO-3D [Mizuho Co., Ltd.]). The compound obtained in Preparation Example 2 was intraperitoneally administered in an amount of 0.3 mg/kg, 2 mg/kg and 8 mg/kg rightly after the occlusion of the middle cerebral artery, respectively. After 24 hours, the brain was enucleated and cut into slices of 2 mm thick. Each slice was stained with 1% 2,3,5-triphenyltetrazolium chloride (TTC), followed by the taking of photos. The photograph was analyzed and the area of the infarct lesion was measured. The volume of the infarct lesion was calculated from the below-described equation. […]
# a: infarct area (B+4) on the cross-section 4 mm forward from the forehead, b: infarct area (B+2) on the cross-section 2 mm forward from the forehead, c: infarct area (B) on the cross-section of the forehead, d: infarct area (B-2) on the cross-section 2 mm backward from the forehead, and e: infarct area (B-4) on the-cross-section 4 mm backward from the forehead.
# [3] = 2 hours occlusion, intraperitoneal 0.5, 2 and 8 mg/kg rightly before re-perfusion, 24 hours after occlusion
# [4] = intraperitoneal dose of 2 mg/kg
smiles,measurement,setting,value
"CC1=C(CCCCCCCCCCCCCCCO)C(C)(C)CCC1=O [Preparation Example 2, 3-(15-hydroxypentadecyl)-2,4,4-trimethyl-2-cyclohexen-1-one]",area of the infarct lesion,[1]; [3],reduction
same,volume of the infarct lesion,[1]; [3],reduction
same,brain protective action,[1]; [4],marked brain protective action
same,volume of the infarct lesion,"[2]; intraperitoneal 0.3, 2 and 8 mg/kg rightly after occlusion, after 24 hours, V=a+2(b+c+d)+e",reduction
same,area of the infarct lesion,"[2]; intraperitoneal 0.3, 2 and 8 mg/kg rightly after occlusion, brain taken after 24 hours, TTC staining",reduction
same,brain protective action,[2]; [4],marked brain protective action
